Assay results as given in US7045343B2, “Sterilization indicator test packs” (3M Innovative Properties Company, priority 1998, dated 2006).

What was measured:
[1] = system: enzyme associated with Bacillus stearothermophilus spores; experiment: Rapid enzyme fluorescence readout of indicators after hydrogen peroxide plasma sterilization; assay type: biochemical; conditions: for FLUORESCENCE - PERCENT POSITIVE 1 HR / FLUORESCENCE - PERCENT POSITIVE 2 HR / FLUORESCENCE - PERCENT POSITIVE 3 HR / FLUORESCENCE - PERCENT POSITIVE 4 HR / FLUORESCENCE - PERCENT POSITIVE 5 HR: 1–22 min diffusion
Description: (§1) Sterilization indicators for Examples 6–9 were prepared as described above with the exception that closure member 22 of the sterilization indicator was constructed of TYVEK™ high-density polyethylene fiber material, commercially available from E.I. du Pont de Nemours and Co., Wilmington, Del.
(§2) Sterilization indicators were made as described above with spores that had been coated with each of the chemicals and concentrations listed in Table 6. The indicators were placed in instrument trays and exposed to a hydrogen peroxide plasma sterilization procedure at 45–55° C. in a STERRAD™ 100SI GMP Sterilizer, obtained from Advanced Sterilization Products Co., Irvine, Calif. During the sterilization procedure a vacuum was drawn in the sterilization chamber for 5–6 minutes until the pressure was reduced to 300 mTorr. A 1.8 ml aliquot of an aqueous solution of 58–60% hydrogen peroxide was then injected into the sterilization chamber over a period of about 6 minutes, yielding an empty chamber concentration of […] hydrogen peroxide, and hydrogen peroxide vapor was allowed to diffuse throughout the chamber for 1–22 minutes at 6–10 Torr. A vacuum was then drawn, reducing the pressure to 500 mTorr and removing all detectable hydrogen peroxide vapor from the chamber.
(§3) After exposure to the sterilization procedure, the indicators were removed from the sterilizer and the inner containers containing the enzyme substrate and nutrient medium were crushed. The indicators were then incubated at 60° C. and examined for fluorescence every hour for 5 hours using a 3M™ ATTEST™ Model 190 Rapid Autoreader, commercially available from 3M Company, St. Paul, Minn. Additionally, spore growth, as indicated by a color change from purple to yellow, was determined visually after 168 hours of incubation.
(§4) The number of growth positive indicators detected after 168 hours of incubation is recorded in Table 6.
as §2, with “7.” for “6.”
as §2, with “8.” for “6.”, “chamber. […]” for “chamber.”

[2] = system: Bacillus stearothermophilus spores; experiment: Spore outgrowth (color change) of indicators after prevacuum steam sterilization; assay type: cell-based; conditions: 4-pulse prevacuum steam 121° C.
In short: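 Bacillus stearothermophilus ATCC 7953 spores were cleaned, mixed into a heated sterilant-resistant coating chemical solution and pipetted onto paper strips at about 1×10^6 spores per strip. The strips were dried and placed in indicators, then exposed to a 4-pulse prevacuum steam cycle at 121° C. After exposure the media ampoule was crushed, and growth was judged visually as a purple-to-yellow color change after 168 hours at 60° C.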

[3] = system: enzyme associated with Bacillus stearothermophilus spores; experiment: Rapid enzyme fluorescence readout of dual rapid readout indicators after prevacuum steam sterilization; assay type: biochemical; conditions: 4-pulse prevacuum steam 121° C.
In short: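 Bacillus stearothermophilus ATCC 7953 spores were coated with a sterilant-resistant chemical solution and pipetted onto paper strips at about 1×10^6 spores per strip. Each strip sat in a dual rapid readout indicator beside a crushable inner container of nutrient medium holding 4-methylumbelliferyl-alpha-D-glucoside at pH 7.6. Indicators went through a 4-pulse prevacuum steam cycle at 121° C, were activated, incubated at 60° C, and read for fluorescence on a 3M ATTEST Model 190 Rapid Autoreader.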

[4] = system: Bacillus stearothermophilus spores; experiment: Spore outgrowth (color change) of indicators after hydrogen peroxide plasma sterilization; assay type: cell-based; conditions: 1–22 min diffusion
Description: as §1, §2, §3, §4
as §2, with “7.” for “6.”
as §2, with “8.” for “6.”, “chamber. […]” for “chamber.”

[5] = Example 4, 50 mg/ml coating, 7–18 min
[6] = Example 4, 100 mg/ml coating, 7–18 min
[7] = Example 5, 50 mg/ml coating, 7–13 min
[8] = Example 5, 100 mg/ml coating, 7–13 min

| Substance | FLUORESCENCE - PERCENT POSITIVE 1 HR ([1]; Example 7, 50 mg/ml coating) [%] | FLUORESCENCE - PERCENT POSITIVE 2 HR ([1]; Example 7, 50 mg/ml coating) [%] | FLUORESCENCE - PERCENT POSITIVE 3 HR ([1]; Example 7, 50 mg/ml coating) [%] | FLUORESCENCE - PERCENT POSITIVE 4 HR ([1]; Example 7, 50 mg/ml coating) [%] | FLUORESCENCE - PERCENT POSITIVE 5 HR ([1]; Example 7, 50 mg/ml coating) [%] | NO. GROWTH POSITIVE 168 HR [2, 5] | NO. GROWTH POSITIVE 168 HR [2, 6] | FLUORESCENCE - PERCENT POSITIVE 1 HR [3, 5] [%] | FLUORESCENCE - PERCENT POSITIVE 2 HR [3, 5] [%] | FLUORESCENCE - PERCENT POSITIVE 3 HR [3, 5] [%] | FLUORESCENCE - PERCENT POSITIVE 4 HR [3, 5] [%] | FLUORESCENCE - PERCENT POSITIVE 1 HR [3, 6] [%] | FLUORESCENCE - PERCENT POSITIVE 2 HR [3, 6] [%] | FLUORESCENCE - PERCENT POSITIVE 3 HR [3, 6] [%] | FLUORESCENCE - PERCENT POSITIVE 4 HR [3, 6] [%] | NO. GROWTH POSITIVE 168 HR ([4]; Example 7, 50 mg/ml coating) | NO. GROWTH POSITIVE 168 HR [2, 7] | NO. GROWTH POSITIVE 168 HR [2, 8] | FLUORESCENCE - PERCENT POSITIVE 1 HR [3, 7] [%] | FLUORESCENCE - PERCENT POSITIVE 2 HR [3, 7] [%] | further results |
| --- | --- | --- | --- | --- | --- | --- | --- | --- | --- | --- | --- | --- | --- | --- | --- | --- | --- | --- | --- | --- | --- |
| Hexaglyceryl Polyricinolate | 83.3 | 91.7 | 91.7 | 91.7 | 91.7 | 23 | 31 | 0 | 13.0 | 52.2 | 56.5 | 9.7 | 19.4 | 32.3 | 45.2 | 12 |  |  |  |  |  |
| Sodium POE(8) Oleyl Ether Phosphate |  |  |  |  |  |  |  |  |  |  |  |  |  |  |  |  | 6 | 3 | 0 | 0 | FLUORESCENCE - PERCENT POSITIVE 1 HR ([1]; Example 8, 50 mg/ml coating): 0%; FLUORESCENCE - PERCENT POSITIVE 2 HR ([1]; Example 8, 50 mg/ml coating): 0%; FLUORESCENCE - PERCENT POSITIVE 3 HR ([1]; Example 8, 50 mg/ml coating): 0%; FLUORESCENCE - PERCENT POSITIVE 4 HR ([1]; Example 8, 50 mg/ml coating): 0%; FLUORESCENCE - PERCENT POSITIVE 5 HR ([1]; Example 8, 50 mg/ml coating): 0%; FLUORESCENCE - PERCENT POSITIVE 1 HR ([1]; Example 8, 100 mg/ml coating): 0%; FLUORESCENCE - PERCENT POSITIVE 2 HR ([1]; Example 8, 100 mg/ml coating): 0%; FLUORESCENCE - PERCENT POSITIVE 3 HR ([1]; Example 8, 100 mg/ml coating): 0%; FLUORESCENCE - PERCENT POSITIVE 4 HR ([1]; Example 8, 100 mg/ml coating): 0%; FLUORESCENCE - PERCENT POSITIVE 5 HR ([1]; Example 8, 100 mg/ml coating): 0%; FLUORESCENCE - PERCENT POSITIVE 3 HR [3, 7]: 0%; FLUORESCENCE - PERCENT POSITIVE 4 HR [3, 7]: 0%; FLUORESCENCE - PERCENT POSITIVE 1 HR [3, 8]: 0%; FLUORESCENCE - PERCENT POSITIVE 2 HR [3, 8]: 0%; FLUORESCENCE - PERCENT POSITIVE 3 HR [3, 8]: 0%; FLUORESCENCE - PERCENT POSITIVE 4 HR [3, 8]: 0%; NO. GROWTH POSITIVE 168 HR ([4]; Example 8, 50 mg/ml coating): 0; NO. GROWTH POSITIVE 168 HR ([4]; Example 8, 100 mg/ml coating): 0 |
| Tetraglyceryl Monooleate |  |  |  |  |  | 17 | 35 | 0.0 | 52.9 | 52.9 | 58.8 | 57.1 | 100.0 | 100.0 | 100.0 |  |  |  |  |  | accuracy of sterilization indicators compared to indicators made with untreated spores ([1]; 1–3 hours after exposure): improved; FLUORESCENCE - PERCENT POSITIVE 1 HR ([1]; Example 6, 50 mg/ml coating): 76.6%; FLUORESCENCE - PERCENT POSITIVE 2 HR ([1]; Example 6, 50 mg/ml coating): 90.9%; FLUORESCENCE - PERCENT POSITIVE 3 HR ([1]; Example 6, 50 mg/ml coating): 100%; FLUORESCENCE - PERCENT POSITIVE 4 HR ([1]; Example 6, 50 mg/ml coating): 100%; FLUORESCENCE - PERCENT POSITIVE 5 HR ([1]; Example 6, 50 mg/ml coating): 100%; accuracy of sterilization indicators compared to indicators made with untreated spores [3]: improved; NO. GROWTH POSITIVE 168 HR ([4]; Example 6, 50 mg/ml coating): 11 |
| polyoxyethylene (20) sorbitan monostearate [POE(20) Sorbitan Monostearate] | 100 | 100 | 100 | 100 | 100 |  |  |  |  |  |  |  |  |  |  | 6 | 5 | 2 | 0 | 0 | accuracy of sterilization indicators compared to indicators made with untreated spores ([1]; 2–3 hours after exposure): improved; FLUORESCENCE - PERCENT POSITIVE 1 HR ([1]; Example 7, 100 mg/ml coating): 50%; FLUORESCENCE - PERCENT POSITIVE 2 HR ([1]; Example 7, 100 mg/ml coating): 50%; FLUORESCENCE - PERCENT POSITIVE 3 HR ([1]; Example 7, 100 mg/ml coating): 62.5%; FLUORESCENCE - PERCENT POSITIVE 4 HR ([1]; Example 7, 100 mg/ml coating): 75%; FLUORESCENCE - PERCENT POSITIVE 5 HR ([1]; Example 7, 100 mg/ml coating): 75%; FLUORESCENCE - PERCENT POSITIVE 3 HR [3, 7]: 0%; FLUORESCENCE - PERCENT POSITIVE 4 HR [3, 7]: 0%; FLUORESCENCE - PERCENT POSITIVE 1 HR [3, 8]: 0%; FLUORESCENCE - PERCENT POSITIVE 2 HR [3, 8]: 0%; FLUORESCENCE - PERCENT POSITIVE 3 HR [3, 8]: 0%; FLUORESCENCE - PERCENT POSITIVE 4 HR [3, 8]: 0%; NO. GROWTH POSITIVE 168 HR ([4]; Example 7, 100 mg/ml coating): 8 |
